This note sets out measurements from a melting point compilation (Tetko et al.; mined from patent text by program, amines drawn as free bases though some values may be those of a salt).

Take `Cc1ccc(-c2cc(-c3ccccc3)n[nH]2)cc1`: the melting point is 175 °C.

In turn, `C#CCn1c(-c2c(Cl)cccc2Cl)nc(-c2ccncc2)c1-c1ccc(Cl)cc1` came in with a melting point of 169 to 172 °C. In turn, `COC(=O)CC[C@H](NC(=O)c1ccc(NCC(=O)OCc2ccccc2)cc1)C(=O)OC` displayed a melting point of 82 °C.

For `O=C(Nc1ccc([N+](=O)[O-])cc1Cl)c1ccc(C(=O)Nc2ccc([N+](=O)[O-])cc2Cl)cc1`, the melting point came out at 339 °C. Consider `Cc1ccc2c(=O)n(CCCN3CC=C(c4ccc(Cl)cc4)CC3)c(=O)[nH]c2c1`, for which the melting point lay within 199 to 201 °C.

In the case of `COc1ccc(/C=C2/c3cc(OC)c(OC)cc3CCN2C(=O)C2CC2)cc1OC`, the melting point was 148 to 151 °C. Next, `CNC(=O)N1CCC(Oc2ccc([N+](=O)[O-])cc2)(c2ccccc2)CC1`: 110 to 115 °C; `COc1ccccc1N1CCN(CC(O)COc2ccc3cc(C(C)=O)oc3c2)CC1` (stereo unspecified): 122 to 125 °C. Turning to `CC(=O)Oc1cc(Cl)c(Cl)c(Cl)c1N1CC(O)CC1=O` (stereo unspecified), the melting point lay in the range of 84 to 86 °C. With `O=C(NC1CCN(CC(O)COc2cccc3ccccc23)CC1)c1ccccc1` (stereo unspecified) the figure was 139 to 141 °C; with `CCOC(=O)c1c2ccc(CC(=O)NOCC(N)=O)ccc-2c(C(=O)OCC)c1N`, 208 to 210 °C. For the compound `O=C1NC(=O)C(S(=O)(=O)c2ccccn2)S1` (stereo unspecified), the melting point lay in the range of 129 to 131 °C.

Regarding `COCCN1CCN(c2c(F)cc(N3C[C@H](CNC(C)=O)OC3=O)cc2F)CC1`, the melting point lay within 162 to 164 °C. With `CC(C)(C)c1cc(NC(=O)c2ccccc2)cc(C(C)(C)C)c1O` the figure was 209 to 210 °C; with `CCN(C(=O)C1CC1)c1cn(-c2cccnc2)nc1Cl`, 111 to 119 °C. Regarding `Cc1cc(C)n(-c2nc(-c3ccc(Cl)cc3)c(CCCOc3ccccc3C)o2)n1`, the melting point lay within 103 to 104 °C.

As to `Fc1ncccc1-c1cscc1Br`, the melting point fell in the range of 48 to 50 °C. With `CCCCOCCCNc1ccc(-n2cc(C(F)(F)F)ccc2=O)c(Cl)c1` the figure was 83 to 85 °C; with `CC(=O)Oc1ccc(C(=O)Nc2ncc(S(C)(=O)=O)s2)cc1`, 280 to 281 °C. With `O=CN(O)C(CO)CS(=O)(=O)c1ccc(-c2ccc(Cl)cc2)cc1` (stereo unspecified) the figure was 153 to 154 °C; with `CCOC(=O)CNc1cc(F)ccc1[N+](=O)[O-]`, 194 to 195 °C. Next, `CC(C)(C)CCC(=S)SC(C)(C)C`: 98 to 99 °C; `Cc1[nH]c(=S)[nH]c1-c1cc(C(C)(C)C)c(O)c(C(C)(C)C)c1`: 288 to 290 °C. On to `CSc1ccc(C(=O)NCc2ccc3c(c2)C(=O)N(C2(C)CCC(=O)NC2=O)C3=O)nc1` (stereo unspecified), for which the melting point fell in the range of 210 to 212 °C.

On to `O=C(OCCN1CCOC1=O)c1ccccc1Nc1ccnc2cc(Cl)ccc12`, for which the melting point lay within 122 to 124 °C.

In turn, `CCc1c(C(F)(F)F)nn(-c2ccc(S(N)(=O)=O)nc2)c1-c1ccc(-c2cscn2)c(F)c1` had a melting point of 182 to 185 °C. Next, `O=C(N[C@H]1CCOC1=O)[C@H](Cc1ccccc1)NS(=O)(=O)c1cccc2ccccc12`: 93 to 94 °C; `Nc1ncc2cc(-c3ccccn3)c(N)nc2n1`: 312 to 321 °C.

`CC(=O)Oc1ccc(CC(CCC(=O)O)N2C(=O)c3ccccc3C2=O)cc1` (stereo unspecified) showed a melting point of 142 to 144 °C.

The compound `COP(=O)(Cc1c(C)ccc2ccccc12)OC` registered a melting point of 54 to 57 °C. With `Cn1c(=O)sc2ccc(C(c3ccc(C#N)cc3)n3cncn3)cc21` (stereo unspecified) the figure was 122 to 125 °C; with `O=C(Cc1ccccc1N1CCCC1)N1C[C@@H]2SCCC(c3ccccc3)(c3ccccc3)[C@@H]2C1` (racemic), 166 °C. With `CCC(OC)c1ccc(Cl)c2nc3n(c12)CCCN3c1ccc(Cl)cc1Cl` (stereo unspecified) the figure was 136 to 137 °C; with `Cc1c(CO)c(CO)c2n1Cc1ccccc1C2`, 99 to 101 °C. With `COc1ccc(N2CCN(c3ccc(OC)nc3-c3ccc(C(C)(C)O)cc3)CC2)cc1` the figure was 138 to 144 °C; with `Cc1nn(-c2cc(N)c(Cl)cc2F)c(Cl)c1Br`, 113 to 116 °C. The compound `CC(=O)c1cc(OCC(O)COc2ccc(C#N)cc2)ccc1O` (stereo unspecified) yielded a melting point of 118 to 120 °C. With `CN1CCN(c2nccnc2Cl)CC1` the figure was 34 to 36 °C; with `CC(C)(C)OC(=O)NCC1CC(ON2C(=O)c3ccccc3C2=O)C1` (stereo unspecified), 145 to 150 °C.

Compound `Nc1ccc(C(=O)Nc2ccc(-c3c[nH]c(=O)cn3)cc2)cc1` had a melting point of over 300 °C. With `CCOC(=O)CCN(CC(N)=O)C(=O)Cn1cc(C)c(=O)[nH]c1=O` the figure was 207 to 208 °C. With `O=C(NCc1ccc2c(c1)OCO2)c1ccc2[nH]c(=O)n(Cc3ccccc3)c(=O)c2c1` the figure was 176 °C; with `O=C1NCCN(c2ccc(OC(F)(F)C(F)F)cc2)C1=O`, 240 to 242 °C.

The compound `Nc1ccc2c(C3=CN4CCC3CC4)c[nH]c2c1` gave a melting point of 65 to 67 °C. Next, `CCOc1nn(-c2ccc(C(F)(F)F)cn2)cc1CCCOc1cccc(CC(=O)O)c1`: 134 to 135 °C. In turn, `CCOC(=O)c1ccccc1CS(=O)(=O)Cl` displayed a melting point of 63 to 64 °C. Next, `CCN(C1CC(C)(C)Oc2ccc(OCCO)cc21)S(C)(=O)=O` (stereo unspecified): 76 to 78 °C; `Cc1c(-c2ccnc(Cl)n2)cccc1[N+](=O)[O-]`: 138 to 139 °C. For the compound `Cc1ccc(-c2nc3ccc(O)cc3n2Cc2ccccc2C(F)(F)F)cc1C`, the melting point was 178 °C. With `COc1cc(-n2ccc(C)n2)ccc1C(=O)N1Cc2ccc(CN(C)C)n2Cc2ccccc21` the figure was 196 to 198 °C; with `CC1C=C(C(=O)C(C#N)C(=O)Nc2ccccc2)c2cccc3c2=C1C1=CN=NC=31` (stereo unspecified), 275 to 278 °C. With `C[C@H]1CN(c2c(F)c(F)c3c(=O)c(C(=O)O)cn(C4CC4)c3c2F)C[C@H]1N` (relative stereo) the figure was 255 to 256 °C; with `O=C(N1CCc2ccccc2CC1)C(F)(F)F`, 73 to 74 °C. With `O=C1CC(O)CC(/C=C/c2c(Cl)cc(Cl)cc2OCc2ccccc2)O1` (stereo unspecified) the figure was 109 to 112 °C; with `CCCc1c(OCC(O)CSc2ccc(C(=O)CCC(=O)O)cc2F)ccc(C(C)=O)c1O` (stereo unspecified), 106 to 109 °C; with `N[C@H]1CC[C@H](CNc2ncc3ncnc(Nc4ccc(F)c(Cl)c4)c3n2)CC1`, 166 to 169 °C.

Take `CCNc1ccc(S(=O)(=O)Nc2onc(C)c2C)cc1`: the melting point was 123 °C. Next, `COC(=O)[C@H](C)N(C(=O)[C@H](CC(C)C)NC(=O)OC(C)(C)C)c1ccc(Cl)c(Cl)c1`: 117 to 119 °C; `Cc1ccc(-c2nccc3c(Cl)cccc23)cc1`: 88.6 to 89.1 °C. `O=C(O)c1cc(NCc2ccccc2)c(Nc2ccccc2)c(S(=O)(=O)Nc2ccccc2)c1` had a melting point of 243 °C.

`CC(C)ON=Cc1nn(-c2c(Cl)cc(C(F)(F)F)cc2Cl)c(N)c1S(C)=O` (stereo unspecified) returned a melting point of 128 to 130 °C. Next, `Oc1ccc(C2CCC(NCC(O)Cc3ccccc3)CC2)cc1` (racemic): 52 to 57 °C; `CSCC(C)(C)NC(=O)c1c(NC(=O)c2cc(C(F)(F)F)nn2-c2ncccc2Cl)ccc2cn[nH]c12`: 100 to 105 °C; `COc1ccc2c(c1)c(=O)oc1c(C(C)=O)c(O)ccc12`: 197 to 199 °C.

As to `OC1CSC(Oc2ccc(-c3ccoc3)nc2)C(O)C1O` (stereo unspecified), the melting point stood at 132 °C.

With `N#CCc1c(C(=O)O)cc2ccc3c(c2c1-c1ccc(F)cc1)OCO3`, the melting point was 230 to 233 °C. Next, `CCCCCCC(=O)c1ccc2c([N+](=O)[O-])c(O)c(O)cc2c1`: 97 to 98 °C.

As to `COC1(OC)C(=O)NC(Nc2ncnc3c2ncn3C2OC(CO)C(O)C2O)C1Cl` (stereo unspecified), the melting point was 110 to 120 °C.

With `CC(C)c1ccc2nc3ccc(C(=O)OCCCc4cccnc4)cn3c(=O)c2c1`, the melting point lay in the range of 108 to 109 °C.

In turn, `COc1ccc(-c2c(Cl)c(CN3C(=O)CCC3=O)nc3sc4c(c23)CCS(=O)(=O)C4)cc1` gave a melting point of 300 °C. With `CC(=S)NC[C@H]1CN(c2ccc(C3CCS(=O)(=O)N(C)C3)c(F)c2)C(=O)O1` (stereo partly specified) the figure was 95 to 98 °C. With `COc1cccc2c1CCCC2=NNc1nc(-c2cccc([N+](=O)[O-])c2)cs1` the figure was 185 °C. Compound `NS(=O)(=O)c1ccc(CNC(=O)c2ccccc2SSc2ccccc2C(=O)NCc2ccc(S(N)(=O)=O)cc2)cc1` yielded a melting point of 267 to 269 °C. Next, `COc1ccc2cc(C(=O)C34CC5CC(CC(C5)C3)C4)oc2c1`: 99 to 101 °C; `CC(Cc1ccc(Br)cc1)C(=O)NC(C)(C)CO` (stereo unspecified): 120 to 121 °C. As to `Cn1c(CO)cc2cccc(F)c21`, the melting point lay in the range of 89 to 91 °C. Take `CN1C(=O)C2=C(c3ccc(Br)cc3)OC(=O)C2=C1c1ccccc1`: the melting point fell in the range of 215 to 216 °C. Next, `CN(C)N=C1CCC2C3CCc4cc(O[Si](C)(C)C(C)(C)C)ccc4C3CCC12C` (stereo unspecified): 100 to 103 °C. With `Brc1ccc(N2CCNCC2)nc1` the figure was 70.6 °C; with `COc1cc(C2=Nc3ccc(N4CCCC4)cc3C(=O)C2)ccc1OCc1ccccc1`, 304 to 306 °C.

`CCOC(=O)c1[nH]c(=O)c(CC(C)C)[n+]([O-])c1OC` yielded a melting point of 153 to 155 °C. With `CC1COc2c(N3CCNC(c4ccccc4)C3)c(F)cc3c(=O)c(C(=O)O)cn1c23` (stereo unspecified) the figure was 238 to 244 °C; with `CC(=O)OC1(C(=O)CO)CCC2C3CC(C)C4=CC(=O)C=CC4(C)C3C(O)CC21C` (stereo unspecified), 198 to 201 °C. With `CC1(C)Oc2ccc(C#N)cc2C(n2nc(O)ccc2=O)C1O` (stereo unspecified) the figure was 251 to 252 °C; with `COC(=O)CCCc1cc2nc(Cl)ccc2n1S(=O)(=O)c1ccc2c(c1)OCCN2C`, 106 to 110 °C; with `CC(=O)c1cn(C(c2ccccc2)(c2ccccc2)c2ccccc2)cn1`, 158 to 160 °C.

The melting point is the temperature of the solid-liquid transition.
